{"source": "patent US20090176817A1", "about": "“Method of Treatment of Diarrhea-Predominant Irritable Bowel Syndrome in a Subject” (priority 2005, published 2009)", "test_system": "diarrhea-predominant IBS subjects", "assay": "Study S241.3.006: weekly diary questions on adequate relief", "assay_type": "in vivo, human", "conditions": "for Number of months a subject was a responder: One month (Abdominal pain/discomfort) / Number of months a subject was a responder: One month (Abnormal bowel habits) / Number of months a subject was a responder: One month (IBS symptoms) / Number of months a subject was a responder: Three months (Abdominal pain/discomfort) / Number of months a subject was a responder: Three months (Abnormal bowel habits) / Number of months a subject was a responder: Three months (IBS symptoms) / Number of months a subject was a responder: Two months (Abdominal pain/discomfort) / Number of months a subject was a responder: Two months (Abnormal bowel habits) / Number of months a subject was a responder: Two months (IBS symptoms) / Number of months a subject was a responder: Zero months (Abdominal pain/discomfort) / Number of months a subject was a responder: Zero months (Abnormal bowel habits) / Number of months a subject was a responder: Zero months (IBS symptoms): monthly LOCF", "description": "The study was conducted in 129 study centers in the United States. At total of 2080 subjects consented to participate, and 711 subjects were randomized. A total of 692 subjects were analyzed for efficacy and 701 subjects were analyzed for safety. Diagnosis and main criteria for inclusion were IBS subjects satisfying the Rome I criteria (1992); the diarrhea predominant sub-population of the Rome II criteria; and a minimum abdominal pain/discomfort, stool frequency and consistency determined during the run-in period. Subjects were treated with cilansetron 2 mg tablets given orally TID or matching placebo tablets given orally TID for 12 weeks double-blind treatment.\nThe primary efficacy parameter was the number of months that a subject was a responder for IBS symptoms (abdominal pain, abdominal discomfort, abnormal bowel habits) over the 12-week treatment period. A responder for a month (monthly responder) was defined as a subject who answered the weekly question with “yes” at least twice for that month.\nStudies S24 1.3.OO6, S24 1.3.0 1 1, and S24 1.3.009 used the following efficacy measurements: • The subjects answered the following three questions with “yes” or “no” using a phone diary at the end of each week: • a) During the last week, did you experience adequate relief of your IBS symptoms, such as abdominal pain, abdominal discomfort, abnormal bowel habits? • b) During the last week, did you experience adequate relief of your abdominal pain and/or discomfort? • c) During the last week, did you experience adequate relief of your abnormal bowel habits? • The subjects rated the following symptoms using the phone diary at the end of each day: • abdominal pain/discomfort (five-point scale); • stool consistency (seven-point Bristol Stool Scale); • stool frequency (number of bowel movements each day); • urgency (five-point scale); • straining (yes or no); • feeling of incomplete defecation (yes or no); • bloating or feeling of abdominal distension (five-point scale). • In Studies S241 A006 and S241.3.009, subjects completed the IBS-QOL Survey at Baseline (Day 1) and at the end of treatment. In Study S24 1.3.0 1 1, subjects completed the IBS-QOL Survey at Baseline (Day 1), at the end of the three-month treatment period, and at the end of rerandomized treatment.\nIn all three pivotal efficacy studies, the primary and main secondary efficacy parameters were based on the weekly diary questions on adequate relief and included the following: • 1. Number of months (one month equals four weeks) that a subject was a responder for the weekly diary questions on adequate relief. A responder for a month (monthly responder) was defined as a subject who answered the weekly question with “yes” at least twice for that month. For Studies S241.3.006 and S241.3.011, the primary efficacy parameter was the number of months that a subject was a responder for IBS symptoms during the 12-week treatment period. The two main secondary efficacy parameters were the number of months that a subject was a responder for abdominal pain/discomfort and abnormal bowel habits during the 12-week treatment period. For Study S241.3.009, the number of months that a subject was a responder for the weekly diary questions on adequate relief during Months 1 to 3 (the first 12 weeks) and Months 1 to 6 (24-week) was an additional key secondary efficacy parameter. • 2. Overall responder rate for the weekly diary questions on adequate relief. A responder was defined as a subject who answered the weekly question with “yes” for at least half of the answers available with a minimum of four weeks treatment duration. If a subject had less than four weeks treatment duration, the subject was considered a non-responder. The overall responder rate was the percentage of responders within a treatment group. For Study S241.3.009, the primary efficacy parameter was the overall responder rate for IBS symptoms during the 26-week treatment period. […]", "key": {"[1]": {"conditions": "Duration of IBS: >24 months to ≦48 months, 2 mg TID, observed case, ITT"}, "[2]": {"conditions": "Duration of IBS: >24 months to ≦48 months, three-month treatment period, ITT, 2 mg TID"}, "[3]": {"conditions": "Duration of IBS: >48 months to ≦120 months, 2 mg TID, observed case, ITT"}, "[4]": {"conditions": "Duration of IBS: >48 months to ≦120 months, three-month treatment period, ITT, 2 mg TID"}, "[5]": {"conditions": "Duration of IBS: >120 months, 2 mg TID, observed case, ITT"}, "[6]": {"conditions": "Duration of IBS: >120 months, three-month treatment period, ITT, 2 mg TID"}, "[7]": {"conditions": "Duration of IBS: ≦24 months, 2 mg TID, observed case, ITT"}}, "data": [{"smiles": "Cc1nccn1C[C@H]1CCc2c(c3cccc4c3n2CCC4)C1=O", "note": "[Cilansetron, (R)-(−)-4,5,6,8,9,10-hexahydro-10-[(2-methyl-1H-imidazol-1-yl)methyl]-11H-pyrido-[3,2,1-jk]-carbazol-11-one]", "values": [{"measurement": "Overall responder rate, adequate relief of abnormal bowel habits", "setting": "Baseline severity of IBS: severe, three-month treatment period, observed case, ITT, 2 mg TID", "result": "90 (46) n (%)"}, {"measurement": "Overall responder rate, abdominal pain/discomfort", "setting": "Caucasians", "result": 52, "unit": "%"}, {"measurement": "Number of subjects who were responders during the three-month treatment period: Adequate relief of IBS symptoms", "setting": "[1]", "result": "20 (47) n (%)"}, {"measurement": "Number of subjects who were responders during the three-month treatment period: Adequate relief of abdominal pain/discomfort", "setting": "[1]", "result": "22 (51) n (%)"}, {"measurement": "Number of subjects who were responders during the three-month treatment period: Adequate relief of abnormal bowel habits", "setting": "[1]", "result": "20 (47) n (%)"}, {"measurement": "Number of months a subject was a responder: One month (Abdominal pain/discomfort)", "setting": "[2]", "result": "8 (19) n (%)"}, {"measurement": "Number of months a subject was a responder: One month (Abnormal bowel habits)", "setting": "[2]", "result": "10 (23) n (%)"}, {"measurement": "Number of months a subject was a responder: One month (IBS symptoms)", "setting": "[2]", "result": "12 (28) n (%)"}, {"measurement": "Number of months a subject was a responder: Three months (Abdominal pain/discomfort)", "setting": "[2]", "result": "15 (35) n (%)"}, {"measurement": "Number of months a subject was a responder: Three months (Abnormal bowel habits)", "setting": "[2]", "result": "13 (30) n (%)"}, {"measurement": "Number of months a subject was a responder: Three months (IBS symptoms)", "setting": "[2]", "result": "14 (33) n (%)"}, {"measurement": "Number of months a subject was a responder: Two months (Abdominal pain/discomfort)", "setting": "[2]", "result": "6 (14) n (%)"}, {"measurement": "Number of months a subject was a responder: Two months (Abnormal bowel habits)", "setting": "[2]", "result": "7 (16) n (%)"}, {"measurement": "Number of months a subject was a responder: Two months (IBS symptoms)", "setting": "[2]", "result": "4 (9) n (%)"}, {"measurement": "Number of months a subject was a responder: Zero months (Abdominal pain/discomfort)", "setting": "[2]", "result": "14 (33) n (%)"}, {"measurement": "Number of months a subject was a responder: Zero months (Abnormal bowel habits)", "setting": "[2]", "result": "13 (30) n (%)"}, {"measurement": "Number of months a subject was a responder: Zero months (IBS symptoms)", "setting": "[2]", "result": "13 (30) n (%)"}, {"measurement": "Number of subjects who were responders during the three-month treatment period: Adequate relief of IBS symptoms", "setting": "[3]", "result": "54 (52) n (%)"}, {"measurement": "Number of subjects who were responders during the three-month treatment period: Adequate relief of abdominal pain/discomfort", "setting": "[3]", "result": "58 (56) n (%)"}, {"measurement": "Number of subjects who were responders during the three-month treatment period: Adequate relief of abnormal bowel habits", "setting": "[3]", "result": "54 (52) n (%)"}, {"measurement": "Number of months a subject was a responder: One month (Abdominal pain/discomfort)", "setting": "[4]", "result": "12 (12) n (%)"}, {"measurement": "Number of months a subject was a responder: One month (Abnormal bowel habits)", "setting": "[4]", "result": "12 (12) n (%)"}, {"measurement": "Number of months a subject was a responder: One month (IBS symptoms)", "setting": "[4]", "result": "15 (14) n (%)"}, {"measurement": "Number of months a subject was a responder: Three months (Abdominal pain/discomfort)", "setting": "[4]", "result": "40 (38) n (%)"}, {"measurement": "Number of months a subject was a responder: Three months (Abnormal bowel habits)", "setting": "[4]", "result": "37 (36) n (%)"}, {"measurement": "Number of months a subject was a responder: Three months (IBS symptoms)", "setting": "[4]", "result": "35 (34) n (%)"}, {"measurement": "Number of months a subject was a responder: Two months (Abdominal pain/discomfort)", "setting": "[4]", "result": "18 (17) n (%)"}, {"measurement": "Number of months a subject was a responder: Two months (Abnormal bowel habits)", "setting": "[4]", "result": "19 (18) n (%)"}, {"measurement": "Number of months a subject was a responder: Two months (IBS symptoms)", "setting": "[4]", "result": "19 (18) n (%)"}, {"measurement": "Number of months a subject was a responder: Zero months (Abdominal pain/discomfort)", "setting": "[4]", "result": "34 (33) n (%)"}, {"measurement": "Number of months a subject was a responder: Zero months (Abnormal bowel habits)", "setting": "[4]", "result": "36 (35) n (%)"}, {"measurement": "Number of months a subject was a responder: Zero months (IBS symptoms)", "setting": "[4]", "result": "35 (34) n (%)"}, {"measurement": "Number of subjects who were responders during the three-month treatment period: Adequate relief of IBS symptoms", "setting": "[5]", "result": "69 (47) n (%)"}, {"measurement": "Number of subjects who were responders during the three-month treatment period: Adequate relief of abdominal pain/discomfort", "setting": "[5]", "result": "72 (49) n (%)"}, {"measurement": "Number of subjects who were responders during the three-month treatment period: Adequate relief of abnormal bowel habits", "setting": "[5]", "result": "73 (50) n (%)"}, {"measurement": "Number of months a subject was a responder: One month (Abdominal pain/discomfort)", "setting": "[6]", "result": "15 (10) n (%)"}, {"measurement": "Number of months a subject was a responder: One month (Abnormal bowel habits)", "setting": "[6]", "result": "14 (10) n (%)"}, {"measurement": "Number of months a subject was a responder: One month (IBS symptoms)", "setting": "[6]", "result": "13 (9) n (%)"}, {"measurement": "Number of months a subject was a responder: Three months (Abdominal pain/discomfort)", "setting": "[6]", "result": "59 (40) n (%)"}, {"measurement": "Number of months a subject was a responder: Three months (Abnormal bowel habits)", "setting": "[6]", "result": "57 (39) n (%)"}, {"measurement": "Number of months a subject was a responder: Three months (IBS symptoms)", "setting": "[6]", "result": "51 (35) n (%)"}, {"measurement": "Number of months a subject was a responder: Two months (Abdominal pain/discomfort)", "setting": "[6]", "result": "19 (13) n (%)"}, {"measurement": "Number of months a subject was a responder: Two months (Abnormal bowel habits)", "setting": "[6]", "result": "19 (13) n (%)"}, {"measurement": "Number of months a subject was a responder: Two months (IBS symptoms)", "setting": "[6]", "result": "22 (15) n (%)"}, {"measurement": "Number of months a subject was a responder: Zero months (Abdominal pain/discomfort)", "setting": "[6]", "result": "53 (36) n (%)"}, {"measurement": "Number of months a subject was a responder: Zero months (Abnormal bowel habits)", "setting": "[6]", "result": "56 (38) n (%)"}, {"measurement": "Number of months a subject was a responder: Zero months (IBS symptoms)", "setting": "[6]", "result": "60 (41) n (%)"}, {"measurement": "Number of subjects who were responders during the three-month treatment period: Adequate relief of IBS symptoms", "setting": "[7]", "result": "25 (49) n (%)"}, {"measurement": "Number of subjects who were responders during the three-month treatment period: Adequate relief of abdominal pain/discomfort", "setting": "[7]", "result": "27 (53) n (%)"}]}]}
